Results from article PMC9194936, “Preclinical Activity and Pharmacokinetic/Pharmacodynamic Relationship for a Series of Novel Benzenesulfonamide Perforin Inhibitors” (ACS Pharmacology & Translational Science, 2022).
Several values for one entry are separate records, joined by “and”; a condition that tells them apart may be missing. Equal values may be shown once. Each block holds one molecule with its values, some of them ahead of it.

Columns and labels:
perforin [1] = target: T1, perforin (Mus musculus, UniProt P10820); assay: In vivo perforin inhibition (allogeneic bone marrow transfer assay)
T1 construct: endogenous in cells; host or cells: recipient cytotoxic lymphocytes (NK/CTL) of wild-type C57BL/6 mice, in vivo
T1 sequence (P10820 21-554): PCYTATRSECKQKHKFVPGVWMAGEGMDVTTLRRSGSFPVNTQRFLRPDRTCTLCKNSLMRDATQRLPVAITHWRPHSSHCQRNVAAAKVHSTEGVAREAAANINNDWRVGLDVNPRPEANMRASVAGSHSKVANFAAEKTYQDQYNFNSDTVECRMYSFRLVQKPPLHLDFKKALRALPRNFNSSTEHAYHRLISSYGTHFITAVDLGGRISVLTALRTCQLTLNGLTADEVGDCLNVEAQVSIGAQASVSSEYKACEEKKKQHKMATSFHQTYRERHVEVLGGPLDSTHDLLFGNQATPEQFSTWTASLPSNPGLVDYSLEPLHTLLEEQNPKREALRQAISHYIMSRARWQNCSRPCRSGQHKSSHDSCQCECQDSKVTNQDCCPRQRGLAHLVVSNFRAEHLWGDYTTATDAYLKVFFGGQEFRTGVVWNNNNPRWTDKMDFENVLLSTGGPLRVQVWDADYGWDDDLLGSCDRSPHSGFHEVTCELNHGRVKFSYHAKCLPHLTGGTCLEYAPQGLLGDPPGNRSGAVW
Experimental: This model was selected as a surrogate assay for graft rejection during allogeneic bone marrow/stem cell transplantation to enable rapid testing of perforin inhibition in vivo. Mice were transplanted with a mixture of equal numbers of allogeneic immunologically mismatched and syngeneic immunologically matched bone marrow. […] Allogeneic cell survival in spleen and peripheral blood was determined 24 h after transplant, using C57BL/6 perforin-deficient mice (100% perforin inhibition) and untreated C57BL/6 mice (0% perforin inhibition) as controls.
Compounds were tested for in vivo efficacy as described previously.[14] Age- (8–12 weeks) and sex-matched wild-type (H-2D^b, CD45.2^+) or perforin-deficient C57BL/6 mice (C57BL/6-Prf1^tm1Sdz/J; H-2D^b, CD45.2^+) received 12 ×10^6 bone marrow cells from both allogeneic BALB/c (H-2D^d) MHC-mismatched and syngeneic C57BL/6 (H-2D^b) MHC-matched mice (24 × 10^6 cells total). The wild-type recipient mice were treated with perforin inhibitor compounds by intraperitoneal injection in 20% hydroxypropyl-β-cyclodextrin vehicle (10 mL/kg), or with vehicle alone; perforin-deficient mice remained untreated. The mice were euthanized 24 h after bone marrow transfer for peripheral blood mononuclear cell (PBMC) and spleen collection.
Throughout the study, we utilized two strategies to distinguish between recipient, donor allogeneic, and donor syngeneic cells based on either fluorescent labeling prior to transplant or congenic marker expression (CD45.1/CD45.2). In the fluorescent dye approach, allogeneic wild-type BALB/c (H-2D^d, CD45.2^+) bone marrow was labeled with 1 μM carboxyfluorescein succinimidyl ester (CFSE) prior to mixing with syngeneic bone marrow from C57BL/6 congenic mice (CD45.1^+). Twenty-four hours after cell transfer, the harvested cells were stained with anti-CD45.1-phycoerythrin and anti-TER119-allophycocyanin monoclonal antibodies (BioLegend, San Diego, CA). TER119 was used for erythroid exclusion prior to the identification of allogeneic (CFSE^+) and syngeneic (CD45.1^+) donor cells. Using a second purely congenic marker approach, allogeneic BALB/c congenic (H-2D^d, CD45.1^+) bone marrow was mixed with syngeneic C57BL/6 double congenic (H-2D^b, CD45.1^+CD45.2^+) bone marrow prior to transfer. The harvested cells were stained with anti-CD45.1-phycoerythrin, anti-CD45.2-phycoerythrin-cyanine-7, and anti-TER119-allophycocyanin monoclonal antibodies (BioLegend, San Diego, CA). TER119 was used for erythroid exclusion, prior to identification of allogeneic donor (CD45.1^+), syngeneic donor (CD45.1^+ CD45.2^+), and recipient (CD45.2^+) cells. Dead cells were excluded using 7-aminoactinomycin D. Samples were acquired with an LSR Fortessa (BD Biosciences) and analyzed using FlowJo version 9 software (BD Biosciences). Prism version 9 (GraphPad) was used to calculate CTL indices as the percentage survival of syngeneic donor cells divided by the percentage survival of allogeneic donor cells. […] In vivo perforin inhibition animal experiments were approved by the Animal Ethics Committee of the QIMR Berghofer Medical Research Institute.

perforin [2] = target: T1, perforin; assay: PK/PD relationship (sigmoid Emax model, regression analysis); conditions: in vivo mouse model
Experimental: The relationship between efficacy (% perforin inhibition in peripheral blood and spleen) and pharmacokinetics was determined for different pharmacokinetic properties (Figure 5A,B). […] Simply maintaining the concentrations above a minimal level without reaching very high levels was not sufficient for perforin inhibition, as exemplified by three doses at 80 mg/kg.
The normality of in vivo perforin inhibition data was checked by Shapiro–Wilk and D’Agostino–Pearson normality tests. Statistical tests were performed by one-way ANOVA with multiple comparisons made to the vehicle-treated group and corrected using Dunnett’s post-test analysis. A comparison of measured and simulated plasma concentrations was analyzed by linear regression. Efficacy data were correlated to pharmacokinetic data using a sigmoid Emax model and regression analysis. All statistical analyses were conducted using Prism v8 or 9.

[3] = 80 mg/kg bid (0 and 18 h), pooled with pretransplant dosing data
[4] = 120 mg/kg bid (0 and 18 h), pooled with pretransplant dosing data
[5] = 160 mg/kg bid (0 and 18 h), pooled with pretransplant dosing data
[6] = 160 mg/kg qd x 4 (0, 24, 48 h prior to and 18 h after transfer), 24 h after transplant

Compound: CN1Cc2cc(-c3ccc(-c4cncc(NS(=O)(=O)c5ccccc5[N+](=O)[O-])c4)s3)ccc2C1=O [Compound 1, N-{5-[5-(2-methyl-1-oxo-2,3-dihydro-1H-isoindol-5-yl)-2-thienyl]-3-pyridinyl}-2-nitrobenzenesulfonamide]
% perforin inhibition, blood (perforin [1]; [3]): -0.71% | % perforin inhibition, spleen (perforin [1]; [3]): 7.66% | % perforin inhibition, blood (perforin [1]; 80 mg/kg qd (one dose at 0 h)): -5.19% | % perforin inhibition, spleen (perforin [1]; 80 mg/kg qd (one dose at 0 h)): -4.19% | % perforin inhibition, spleen (perforin [1]; 80 mg/kg qd x 4 (0, 24, 48 h prior to and 18 h after transfer), 24 h after transplant): 7.66% and 7% | % perforin inhibition, blood (perforin [1]; 80 mg/kg qd x 4, 24 h after transplant): 26.33% and 26% | % perforin inhibition, blood (perforin [1]; 80 mg/kg tid (0, 9 and 18 h)): -1.34% | % perforin inhibition, spleen (perforin [1]; 80 mg/kg tid (0, 9 and 18 h)): -1.98% | % perforin inhibition, blood (perforin [1]; [4]): 43.66% | % perforin inhibition, spleen (perforin [1]; [4]): 30.50% | perforin inhibition in vivo (in words) (perforin [1]; 120 mg/kg followed by two doses of 80 mg/kg): moderate perforin inhibition | % perforin inhibition, blood (perforin [1]; 120 mg/kg qd (one dose at 0 h)): 17.84% | % perforin inhibition, spleen (perforin [1]; 120 mg/kg qd (one dose at 0 h)): 16.71% | % perforin inhibition, spleen (perforin [1]; 120 mg/kg qd x 4 (0, 24, 48 h prior to and 18 h after transfer), 24 h after transplant): 39.90% and 40% | % perforin inhibition, blood (perforin [1]; 120 mg/kg qd x 4, 24 h after transplant): 44.84% and 45% | % perforin inhibition, blood (perforin [1]; 120 mg/kg tid (0, 9 and 18 h)): 69.14% | % perforin inhibition, spleen (perforin [1]; 120 mg/kg tid (0, 9 and 18 h)): 40.42% | % perforin inhibition, blood (perforin [1]; [5]): 56.50% | % perforin inhibition, spleen (perforin [1]; [5]): 42.46% | % perforin inhibition, spleen (perforin [1]; [6]): 48.20% and 48% | % perforin inhibition, blood (perforin [1]; 160 mg/kg qd x 4, 24 h after transplant): 55.47% and 55% | % perforin inhibition, blood (perforin [1]; 120+80+80 mg/kg tid): 34.71% | % perforin inhibition, spleen (perforin [1]; 120+80+80 mg/kg tid): 15.22% | perforin inhibition in vivo (in words) (perforin [1]; three doses of 80 mg/kg): ineffective | perforin inhibition in vivo (in words) (perforin [1]; three doses of 120 mg/kg): highly active | total plasma concentration to be continuously maintained for optimal perforin inhibition (perforin [2]): > 900 µM

% perforin inhibition, spleen (perforin [1]; [6]): 26.55%
Compound: O=C1NCc2ccc(-c3ccc(-c4cncc(NS(=O)(=O)c5ccc(F)cc5F)c4)s3)cc21 [Compound 7, 2,4-difluoro-N-{5-[5-(3-oxo-2,3-dihydro-1H-isoindol-5-yl)-2-thienyl]-3-pyridinyl}benzenesulfonamide]
